# Residues, ends and D or L forms follow the SMILES beside them. *: point of attachment. Cbz = O=C(OCc1ccccc1)*; CH2F = FC*
# Tests used:
# HT1080 cells [1] = assay: Flow cytometry of GSAO- and annexin V-labeled cells; format: cell-based, human
# Experimental: HT1080 cells were treated for 20 h with 1 μg.mL^−1 camptothecin (Calbiochem, San Diego, Calif.), then detached with PBS containing 2.5 mM EDTA and combined with cells that had detached during incubation. The cells were washed twice with annexin V binding buffer (10 mM Hepes, 140 mM NaCl, 2.5 mM CaCl2, pH 7.4), and 2×10^5 cells per treatment were incubated in 100 μL annexin V binding buffer containing 10 μM GSAO-F or GSAA-F for 15 min at room temperature with shaking. The cells were washed twice, then incubated for 15 min in 100 μL annexin V binding buffer containing 5 μl phycoerythrin-conjugated annexin V (annexin V-PE) (PharMingen, San Diego, Calif.) and 1 μl of a 100 μg.mL^−1 solution of propidium iodide (Molecular Probes, Eugene, Oreg.). The total volume was then made up to 500 μl with annexin V binding buffer, and the samples were transferred to ice. Flow cytometry was performed using a FACSstar flow cytometer (Beckton Dickson). Results are derived from 10^4 cells per sample. To test the effect of caspase inhibition on to GSAO-F uptake, cells were treated with camptothecin in the absence or presence of 10 μg.mL^−1 Z-VAD-FMK (carbobenzoxy-valyl-alanyl-aspartyl-[O-methyl]-fluoromethylketone) (Calbiochem-Novabiochem, San Diego, Calif.), then detached, washed and incubated in annexin V binding buffer containing 10 μM GSAO-F for 15 min. The cells were washed twice and subjected to flow cytometry.
# HT1080 cells [2] = assay: Confocal microscopy of GSAO- and annexin V-labelled cells; format: cell-based, human; conditions: camptothecin-treated; 10 μM GSAO-F
# Experimental: HT1080 cells were treated for 20 h with 1 μg.mL^−1 camptothecin, then detached with PBS containing 10 mM EDTA, washed with annexin V binding buffer, and incubated for 15 min in annexin V binding buffer containing 10 μM GSAO-F and 1:20 (v/v) Alexa594conjugated annexin V (Molecular Probes, Eugene, Oreg.). The cells were then washed twice with annexin V binding buffer and pipetted onto a microscope slide. Transverse cell sections were captured using an Olympus BX60 microscope and an Optiscan F900e confocal unit and software (Optiscan, Notting Hill, Austrlia).
# HT1080 cells [3] = assay: Labelling of cells with GSAO-B (lysate SDS-PAGE, avidin-peroxidase blot, PDI Western blot); format: cell-based, human; conditions: 5-fold molar excess (50 μM) of dimercaptopropanol
# Experimental: HT1080 cells were for 20 h with 1 μg.mL^−1 camptothecin and labeled with 10 μM GSAO and annexin V-PE as described above for labelling with GSAO-F and annexin V-PE. Cells were sorted on the basis of their annexin V-PE fluorescence, washed three times with PBS and 4×10^4 cells were lysed in 40 μL of RIPA buffer (50 mM Tris-HCl, 0.5 M NaCl, 1% Triton X-100, 1% sodium deoxycholate, 0.1% SDS, 10 μM leupeptin, 10 μM aprotinin, 2 mM phenylmethylsulfonyl fluoride, 5 mM EDTA, pH 8.0) at 4° C. Equal amounts of lysate were electrophoresed on an 8-16% gradient SDS-polyacrylamide gel (Gradipore, Sydney), transferred to […] (PVDF) membrane (Millipore, Bedford, Mass.) and biotinylated proteins were detected with a 1:2000 dilution of avidin-peroxidase (Molecular Probes, Eugene, Oreg.). To identify proteins that had incorporated GSAO-B, 20 μl of RIPA lysate was incubated with 5 μl streptavidin-dynabeads (Dynal Biotech, Oslo, Norway) for 15 min at 4° C. The beads were then washed twice with RIPA buffer, resuspended in 20 μl SDS-PAGE loading buffer, resolved on SDS-PAGE, transferred to polyvinylidene difluoride membrane, and the PDI was detected by Western blot using 2 μg.mL^−1 of anti-PDI polyclonal antibodies (Donoghue et al., 2000) and 1:2000 dilution of goat anti-rabbit peroxidase-conjugated antibodies (Dako Corporation, Carpinteria, Calif.). […]
# [4] = tested on: murine Lewis lung tumours; assay: In vivo near-infrared imaging of Lewis lung tumours; parameters: species or system C57BL/6 mice; conditions: 0.8 mg/kg S.C.
# Experimental: (§1) C57BL/6 (Jackson Labs, Bar Harbor, ME) mice bearing S.C. Lewis lung tumours, SCID (Massachusetts General Hospital, Boston, Mass.) bearing S.C. BxPC3 tumours or TRAMP (Greenberg et al., 1995) mice were given 0.8 mg/kg GSAO-Cy™5.5, GSAA-Cy™5.5 or Cy™5.5 dye alone in 0.1 mL of PBS containing 20 mM glycine by S.C. injection in the right hind flank. The S.C. tumours were established in the proximal dorsum.
# (§2) The imaging system utilised a Leica Microsystems fluorescence microscope (Allendale, N.J.) with a 100 W halogen lamp source and a filter system for CY™5.5 (Chroma Technology, Brattleboro, Vt.). Anaesthetised mice were restrained in a light proof box and fluorescence detected by a 12-bit monochrome charged coupled device (Photometrics, Tuscon, Ariz.). Exposure time was 8 seconds with images digitally acquired as 16-bit Tiff files in IPLab (Scanalytics, Fairfax, Va.). White light images of the tumours were also acquired.
# [5] = tested on: human BxPC-3 pancreatic carcinoma tumours; assay: In vivo near-infrared imaging of BxPC-3 tumours; parameters: species or system SCID mice; conditions: 0.8 mg/kg S.C.
# Experimental: as §1, §2
compound,measurement,setting,value
O=[As]c1ccc(NC(=O)CSC[C@H](NC(=O)CC[C@H](NC(=O)CCSCC(=O)Nc2ccc(-c3c4ccc(=O)cc-4oc4cc(O)ccc34)c(C(=O)O)c2)C(=O)O)C(=O)NCC(=O)O)cc1 (some centres unmarked) [GSAO-F],increase in the proportion of cells whose fluorescein fluorescence was greater than 1027 units,"HT1080 cells [1]; 10 μM label, 15 min, camptothecin-treated vs untreated cells",8.6 fold
same,mean fluorescein fluorescence,"HT1080 cells [1]; camptothecin-treated cell population, 10 μM label",1400 units
same,mean fluorescein fluorescence,"HT1080 cells [1]; untreated cells, 10 μM label",255 units
same,binding to apoptotic and dead cells,HT1080 cells [1]; with annexin V-PE and propidium iodide,bound to both apoptotic and dead cells
same,distribution in annexin V-positive cells,HT1080 cells [2],distributed in the cytoplasm
same,fluorescence in cells that did not label with annexin V,HT1080 cells [2],negligible
"COC(=O)C[C@H](NC(=O)[C@H](C)NC(=O)[C@@H](NC(=O)OCc1ccccc1)C(C)C)C(=O)CF [Z-VAD-FMK, carbobenzoxy-valyl-alanyl-aspartyl-[O-methyl]-fluoromethylketone, reference compound] (Cbz-Val-Ala-Asp(OMe)-CH2F)",effect on the increase in GSAO-F positive cells seen with camptothecin treatment,HT1080 cells [1]; Z-VAD-FMK 10 μg.mL−1 during camptothecin treatment,substantially blocked
"CC[C@@]1(O)C(=O)OCc2c1cc1n(c2=O)Cc2cc3ccccc3nc2-1 [camptothecin, reference compound]",increase in the proportion of cells with phycoerythrin fluorescence greater than 100 fluorescence units (annexin V-positive),"HT1080 cells [1]; camptothecin 1 μg.mL−1, 20 h vs untreated",7.3 fold
"OCC(S)CS (centres unmarked) [dimercaptopropanol, 2,3-dimercaptopropanol, reference compound]",effect on labelling of apoptotic cellular proteins by GSAO-B,HT1080 cells [3],ablated
Cy™5.5,labelling of Lewis lung tumours by controls,[4],Neither GSAA-Cy™5.5 nor Cy™5.5 labelled
same,tumour labelling at 24 hours,[5],Neither GSAA-Cy™5.5 (FIG. 11d(B)) nor Cy™5.5 (FIG. 11d(D)) labelled BxPC3 tumours
